Data taken from PubChem BioAssay (NCI).
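In this assay, cells in 96-well plates receive the compound at five concentrations for 48 hours. Endpoints are linearly interpolated between the surrounding concentrations. TGI: concentration producing complete growth inhibition.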

Legend:
Test in all cases: inhibition of tumour cell growth, NCI panel, 48 h
OVCAR-3 ovarian = system: OVCAR-3 ovarian
HL-60(TB) leukemia = system: HL-60(TB) leukemia
MDA-N = system: MDA-N
UO-31 renal = system: UO-31 renal
ACHN renal = system: ACHN renal
NCI-H522 lung = system: NCI-H522 lung
SK-MEL-5 melanoma = system: SK-MEL-5 melanoma
SN12C renal = system: SN12C renal
SR leukemia = system: SR leukemia
A498 renal = system: A498 renal
EKVX NSCLC = system: EKVX NSCLC
OVCAR-5 ovarian = system: OVCAR-5 ovarian
NCI-H460 lung = system: NCI-H460 lung
MDA-MB-231 breast = system: MDA-MB-231 breast
RXF 393 renal = system: RXF 393 renal
T-47D breast = system: T-47D breast
PC-3 prostate = system: PC-3 prostate
HOP-92 NSCLC = system: HOP-92 NSCLC
SF-295 CNS = system: SF-295 CNS
DU-145 prostate = system: DU-145 prostate
NCI-H23 lung = system: NCI-H23 lung
COLO 205 colon = system: COLO 205 colon
MOLT-4 leukemia = system: MOLT-4 leukemia
BT-549 breast = system: BT-549 breast
HT29 colon = system: HT29 colon
SK-MEL-2 melanoma = system: SK-MEL-2 melanoma
K-562 leukemia = system: K-562 leukemia
UACC-257 melanoma = system: UACC-257 melanoma
KM12 colon = system: KM12 colon
HS 578T breast = system: HS 578T breast
HCT-116 colon = system: HCT-116 colon
MDA-MB-435 = system: MDA-MB-435
HCT-15 colon = system: HCT-15 colon
M14 melanoma = system: M14 melanoma
SK-OV-3 ovarian = system: SK-OV-3 ovarian
MCF7 breast = system: MCF7 breast
786-0 renal = system: 786-0 renal
OVCAR-4 ovarian = system: OVCAR-4 ovarian
NCI-H226 lung = system: NCI-H226 lung
A549 NSCLC = system: A549 NSCLC
UACC-62 melanoma = system: UACC-62 melanoma
HOP-62 NSCLC = system: HOP-62 NSCLC
MALME-3M melanoma = system: MALME-3M melanoma
TK-10 renal = system: TK-10 renal
SNB-19 CNS = system: SNB-19 CNS
RPMI-8226 leukemia = system: RPMI-8226 leukemia
SK-MEL-28 melanoma = system: SK-MEL-28 melanoma
CAKI-1 renal = system: CAKI-1 renal
CCRF-CEM leukemia = system: CCRF-CEM leukemia
IGROV1 ovarian = system: IGROV1 ovarian
U251 CNS = system: U251 CNS
OVCAR-8 ovarian = system: OVCAR-8 ovarian
HCC-2998 colon = system: HCC-2998 colon
SW-620 colon = system: SW-620 colon
NCI/ADR-RES ovarian = system: NCI/ADR-RES ovarian
SNB-75 CNS = system: SNB-75 CNS
LOX IMVI melanoma = system: LOX IMVI melanoma
SF-268 CNS = system: SF-268 CNS
SF-539 CNS = system: SF-539 CNS

O=c1oc2ccc3ccccc3c2cc1-c1nc2ccccc2o1 was tested, and the TGI (OVCAR-3 ovarian) was 32.4 µM, the TGI (HL-60(TB) leukemia) was over 100 µM and the TGI (MDA-N) was over 54.4 µM. The TGI (UO-31 renal) was over 54.8 µM, the TGI (ACHN renal) was 29.9 µM and the TGI (NCI-H522 lung) was 59.4 µM. It also gave a TGI (SK-MEL-5 melanoma) of 58.8 µM, a TGI (SN12C renal) of over 64.1 µM and a TGI (SR leukemia) of over 85.6 µM. It also gave a TGI (A498 renal) of over 77.5 µM, a TGI (EKVX NSCLC) of over 56.2 µM and a TGI (OVCAR-5 ovarian) of over 100 µM. For the same compound, the TGI (NCI-H460 lung) was over 100 µM, the TGI (MDA-MB-231 breast) was 35.6 µM and the TGI (RXF 393 renal) was 34.4 µM. For the same compound, the TGI (T-47D breast) was 39.7 µM, the TGI (PC-3 prostate) was over 74.9 µM and the TGI (HOP-92 NSCLC) was 39.3 µM. The TGI (SF-295 CNS) was over 59.3 µM, the TGI (DU-145 prostate) was over 52.3 µM and the TGI (NCI-H23 lung) was over 63.3 µM. For the same compound, the TGI (COLO 205 colon) was over 100 µM, the TGI (MOLT-4 leukemia) was over 79 µM and the TGI (BT-549 breast) was over 61.4 µM. It also gave a TGI (HT29 colon) of 48.4 µM, a TGI (SK-MEL-2 melanoma) of 60.1 µM and a TGI (K-562 leukemia) of over 100 µM. The TGI (UACC-257 melanoma) was 99.2 µM, the TGI (KM12 colon) was over 63.2 µM and the TGI (HS 578T breast) was over 68.8 µM. For the same compound, the TGI (HCT-116 colon) was over 53.6 µM, the TGI (MDA-MB-435) was over 60.6 µM and the TGI (HCT-15 colon) was over 100 µM. For the same compound, the TGI (M14 melanoma) was over 56 µM, the TGI (SK-OV-3 ovarian) was over 54.4 µM and the TGI (MCF7 breast) was 20.5 µM. It also gave a TGI (786-0 renal) of 42.2 µM, a TGI (OVCAR-4 ovarian) of 90.4 µM and a TGI (NCI-H226 lung) of over 63.6 µM. For the same compound, the TGI (A549 NSCLC) was over 55.2 µM, the TGI (UACC-62 melanoma) was over 100 µM and the TGI (HOP-62 NSCLC) was over 52.1 µM. The TGI (MALME-3M melanoma) was 26.5 µM, the TGI (TK-10 renal) was over 100 µM and the TGI (SNB-19 CNS) was over 46.6 µM. The TGI (RPMI-8226 leukemia) was over 63.4 µM, the TGI (SK-MEL-28 melanoma) was over 59.2 µM and the TGI (CAKI-1 renal) was 40.8 µM. It also gave a TGI (CCRF-CEM leukemia) of over 100 µM, a TGI (IGROV1 ovarian) of 30 µM and a TGI (U251 CNS) of 53.1 µM. For the same compound, the TGI (OVCAR-8 ovarian) was 51.2 µM, the TGI (HCC-2998 colon) was over 100 µM and the TGI (SW-620 colon) was 55.1 µM. For the same compound, the TGI (NCI/ADR-RES ovarian) was 51.7 µM, the TGI (SNB-75 CNS) was 40.7 µM and the TGI (LOX IMVI melanoma) was 32.8 µM. The TGI (SF-268 CNS) was 48.4 µM and the TGI (SF-539 CNS) was 29.3 µM.

With N#CC1=C(N)OC(c2ccc([N+](=O)[O-])cc2)C1(C#N)C#N (stereo unspecified) the TGI (HL-60(TB) leukemia) was 7.84 µM, the TGI (MDA-N) was 24.6 µM and the TGI (UO-31 renal) was 11.5 µM. The TGI (ACHN renal) was 23.8 µM, the TGI (NCI-H522 lung) was 17.8 µM and the TGI (SK-MEL-5 melanoma) was 31.9 µM. It also gave a TGI (SN12C renal) of 32.2 µM, a TGI (SR leukemia) of 41.7 µM and a TGI (A498 renal) of 27.8 µM. For the same compound, the TGI (EKVX NSCLC) was 39.6 µM, the TGI (OVCAR-5 ovarian) was 41.8 µM and the TGI (MDA-MB-231 breast) was 30.4 µM. For the same compound, the TGI (RXF 393 renal) was 21 µM, the TGI (T-47D breast) was 43.2 µM and the TGI (PC-3 prostate) was 34.7 µM. It also gave a TGI (HOP-92 NSCLC) of 21.9 µM, a TGI (SF-295 CNS) of over 71.3 µM and a TGI (DU-145 prostate) of 32.1 µM. It also gave a TGI (NCI-H23 lung) of 32.7 µM, a TGI (COLO 205 colon) of 16.6 µM and a TGI (MOLT-4 leukemia) of 63.3 µM. For the same compound, the TGI (BT-549 breast) was 33.1 µM, the TGI (HT29 colon) was 22.9 µM and the TGI (SK-MEL-2 melanoma) was 23 µM. For the same compound, the TGI (K-562 leukemia) was over 100 µM, the TGI (UACC-257 melanoma) was 26.5 µM and the TGI (KM12 colon) was over 48.4 µM. The TGI (HS 578T breast) was 64.9 µM, the TGI (HCT-116 colon) was 34.8 µM and the TGI (MDA-MB-435) was over 50.4 µM. The TGI (HCT-15 colon) was 27.4 µM, the TGI (M14 melanoma) was 38.9 µM and the TGI (SK-OV-3 ovarian) was over 100 µM. The TGI (MCF7 breast) was 42.4 µM, the TGI (786-0 renal) was 25 µM and the TGI (OVCAR-4 ovarian) was 33.7 µM. It also gave a TGI (NCI-H226 lung) of 41.5 µM, a TGI (A549 NSCLC) of over 93.3 µM and a TGI (UACC-62 melanoma) of 24.3 µM. It also gave a TGI (HOP-62 NSCLC) of over 53 µM, a TGI (MALME-3M melanoma) of 24.1 µM and a TGI (TK-10 renal) of 26.7 µM. For the same compound, the TGI (SNB-19 CNS) was over 53.2 µM, the TGI (RPMI-8226 leukemia) was 18.7 µM and the TGI (SK-MEL-28 melanoma) was 26.9 µM. It also gave a TGI (CAKI-1 renal) of 13 µM, a TGI (CCRF-CEM leukemia) of 43.3 µM and a TGI (IGROV1 ovarian) of 31.1 µM. It also gave a TGI (U251 CNS) of over 78.2 µM, a TGI (OVCAR-8 ovarian) of 32.3 µM and a TGI (HCC-2998 colon) of 23.5 µM. It also gave a TGI (SW-620 colon) of 33.9 µM, a TGI (NCI/ADR-RES ovarian) of 51.7 µM and a TGI (SNB-75 CNS) of 44.6 µM. For the same compound, the TGI (LOX IMVI melanoma) was 21.6 µM, the TGI (SF-268 CNS) was over 54.3 µM and the TGI (SF-539 CNS) was 32.1 µM.
